Laboratory results published in the supplement of paper PMC10307832.

Legend:
Assay in all cases: relative viability (nuclei count vs DMSO), 5 days (fraction); higher = more cells survive
HOP-62 = tested on: HOP-62
In short: (§1)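 One day after seeding in 1536-well plates, lung cancer cell lines were dosed by pin tool. Dosing was either single-drug or a fixed anchor-drug dose plus five library-drug doses (not always all listed) in √10 steps. After 5 days, nuclei were stained in one fix-and-stain step and counted on 4× images, and relative viability is the nuclei count of treated wells over that of vehicle wells, given as the median of duplicate plates.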

NCI-H1734 = tested on: NCI-H1734
In short: as §1

NCI-H647 = tested on: NCI-H647
In short: as §1

NCI-H1755 = tested on: NCI-H1755
In short: as §1

NCI-H2342 = tested on: NCI-H2342
In short: as §1

HARA = tested on: HARA
In short: as §1

PC-14 = tested on: PC-14
In short: as §1

NCI-H2228 = tested on: NCI-H2228
In short: as §1

NCI-H2347 = tested on: NCI-H2347
In short: as §1

NCI-H1395 = tested on: NCI-H1395
In short: as §1

HCC-15 = tested on: HCC-15
In short: as §1

NCI-H2170 = tested on: NCI-H2170
In short: as §1

**Q.** What does the source list for `O=C(O)c1ccc(-c2c[nH]c3ncc(-c4ccccc4)cc23)cc1C1CCCC1` + CCNC(=O)c1noc(-c2cc(C(C)C)c(O)cc2O)c1-c1ccc(CN2CCOCC2)cc1 [Luminespib] (partner 0.01 µM)?
**A.** relative viability (HOP-62; first compound 0.4 µM): 0.86; relative viability (HOP-62; first compound 1.265 µM): 0.737; relative viability (NCI-H1734; first compound 0.04 µM): 0.186; relative viability (NCI-H1734; first compound 0.1265 µM): 0.194; relative viability (NCI-H1734; first compound 0.4 µM): 0.224; relative viability (NCI-H1734; first compound 1.265 µM): 0.202; relative viability (NCI-H647; first compound 0.04 µM): 0.148; relative viability (NCI-H647; first compound 0.1265 µM): 0.152; relative viability (NCI-H647; first compound 0.4 µM): 0.18; relative viability (NCI-H647; first compound 1.265 µM): 0.16; relative viability (NCI-H1755; first compound 0.04 µM): 0.375; relative viability (NCI-H1755; first compound 0.1265 µM): 0.644; relative viability (NCI-H1755; first compound 0.4 µM): 0.695; relative viability (NCI-H1755; first compound 1.265 µM): 0.574; relative viability (NCI-H2342; first compound 0.04 µM): 0.773; relative viability (NCI-H2342; first compound 0.1265 µM): 0.715; relative viability (NCI-H2342; first compound 0.4 µM): 0.758; relative viability (NCI-H2342; first compound 1.265 µM): 0.678; relative viability (HARA; first compound 0.04 µM): 0.767; relative viability (HARA; first compound 0.1265 µM): 0.748; relative viability (HARA; first compound 0.4 µM): 0.141; relative viability (HARA; first compound 1.265 µM): 0.418; relative viability (PC-14; first compound 0.04 µM): 0.225; relative viability (PC-14; first compound 0.1265 µM): 0.129; relative viability (PC-14; first compound 0.4 µM): 0.141; relative viability (PC-14; first compound 1.265 µM): 0.134; relative viability (NCI-H2228; first compound 0.04 µM): 0.144; relative viability (NCI-H2228; first compound 0.1265 µM): 0.188; relative viability (NCI-H2228; first compound 0.4 µM): 0.0961; relative viability (NCI-H2228; first compound 1.265 µM): 0.0961; relative viability (NCI-H2347; first compound 0.04 µM): 0.444; relative viability (NCI-H2347; first compound 0.1265 µM): 0.794; relative viability (NCI-H2347; first compound 0.4 µM): 0.275; relative viability (NCI-H2347; first compound 1.265 µM): 0.408; relative viability (NCI-H1395; first compound 0.04 µM): 0.726; relative viability (NCI-H1395; first compound 0.1265 µM): 0.636; relative viability (NCI-H1395; first compound 0.4 µM): 0.534; relative viability (NCI-H1395; first compound 1.265 µM): 0.606; relative viability (HCC-15; first compound 0.04 µM): 0.266; relative viability (HCC-15; first compound 0.1265 µM): 0.384; relative viability (HCC-15; first compound 0.4 µM): 0.265; relative viability (HCC-15; first compound 1.265 µM): 0.192; relative viability (NCI-H2170; first compound 0.04 µM): 0.745; relative viability (NCI-H2170; first compound 0.1265 µM): 0.804; relative viability (NCI-H2170; first compound 0.4 µM): 0.794; relative viability (NCI-H2170; first compound 1.265 µM): 0.491
